Patent US6159940A, “Method for modulating hemopoiesis” (Immunotech Developments Inc., priority 1999, dated 2000)
Where a SMILES comes first, the peptide text is derived from it.

How the values were obtained:
[1] = tested on: Thymoma EL-4 cells; assay: Thymoma EL-4 cells incubated with peptide and oxyurea, transplanted to mice: tumor growth and survival; format: in vivo, C57B1 mice
Procedure: The Thymoma EL-4 cells were extracted from the abdomen cavity of C57B1 mice at the 7th day after transplantation. The suspension was washed by centrifugation in the medium RPMI. Then the cells were resuspended in the growth medium (RPMI+10% of embryo serum+0.1% penicillin/streptomycin) and were split in culture flasks 5 ml each ([…] per flask). 2 mg of the preparation were added (20 μl) to each probe. After 18 hours of incubation (37 degrees Celsius CO2), OU was added to the half of probes (1 mg per 5 ml). Incubation was done for 1 more hour in the same conditions and then cells were washed out by centrifugation in the medium RPMI. The precipitated cells were resuspended in calculation 1 ml per 0.2 ml of RPMI medium and then transplanted to the mice C57B1 under the back skin.
The taking of the measurements of the size of the tumor was started after the knot became visible. The tumor was measured every day until it was impossible to measure. The survival ability of the mice was examined during 60 days after transplantation. Mice that survived after this period were considered to be cured. Each experimental group consisted of 6 animals.

[2] = tested on: CFU-S; assay: Spleen colony formation from RAMBS-treated bone marrow in lethally irradiated mice; format: in vivo, (CBA×C57BL)F1 female mice; settings: RAMBS-treated bone marrow + preparation, lethally irradiated mice
Excerpt: (CBA×C57BL)F1 female mice (n=2500), 2-months old, weighing about 20 g, were used in the experiment.
As is known, there is a close relationship between T-cells and hemopoietic progenitors. It was shown that, along with colony-forming units of spleen (CFU-S), thymocytes participate in colony formation of spleens of irradiated mice by controlling proliferation of the hemopoietic progenitor cells. The fact was established in a test system, which allowed a selective removal of accessory T-cells from bone marrow with the help of rabbit antimouse brain antiserum (RAMBS) and their substitution with other factors. Aliquots (0.1 ml) of bone marrow suspension (2×10^7 cells), RAMBS, and medium 199 were mixed and incubated for 1 hour at 37° C. Then the cells were washed with centrifuging, resuspended and injected to lethally irradiated mice.
According to the aforesaid scheme, instead of thymocytes mice received the peptide, H-Ile-Glu-Trp-OH injections 30 minutes before the injections of RAMBS-treated bone marrow suspension.

[3] = tested on: CFU-S-8 and CFU-S-12; assay: Cytostatic (Cytosine-Arabinoside)-induced cytopenia: karyocytes, CFU-S-8, CFU-S-12 in bone marrow; format: in vivo, mice; settings: donor bone marrow; CA 20 mg/kg i.p. once; N 10 μg/kg once daily, three injections
Procedure: Used as a cytostatic, Cytosine-Arabinoside (CA) was intraperitoneally injected to donor mice once in the dose of 20 mg/kg. The peptide was given according to the following scheme: 10 μg/kg once daily, three injections starting from the first hour after CA. Intact mice received H-Ile-Glu-Trp-OH in the same doses and according to the same schedule. On day 8 after the cytostatic injection, determined were karyocyte count in the donor bone marrow and the content of hemopoietic progenitors of different polipotencies: committed CFU-S-8 and CFU-S-12. CFU-8 are committed stem cells which later undergo differentiation. CFU-12 are the polypotent cells, from which stem cells can be recruited (i.e. they maintain the pool of stem cells). This is a slowly proliferating cell population, mainly in G phase. That is why it is important to evaluate the effect of a preparation on the pools of both committed (CFU-8) and polypotent (CFU- 12) cells. To this end, bone marrow was extracted from donor's femoral bones and injected to lethally irradiated recipients. After the cell injections, every test group was divided into 2 subgroups: some animals were killed on day 8, the other on day 12. Spleens were taken out and the colonies were counted. The tests were carried out on 105 mice.

[4] = 60 days after transplantation of treated EL-4 cells

NC(=O)NO [OU, oxyurea, reference compound]
% of Survival [1, 4]: 0%
Number of Survived Mice From 6 [1, 4]: 0/6
delay in the tumor growth ([1]; intact tumor cells treated with OU (FIG. 3)): ~12 days
increase in lifetime versus control ([1]; mice with Thymoma EL-4): 5 days

N[C@@H](CCC(=O)O)C(=O)N[C@@H](Cc1c[nH]c2ccccc12)C(=O)O [Thymogen, H-Glu-Trp-OH, reference compound] (H-Glu-Trp-OH)
Average Colony Count [2]: 2.9+/-0.3

Nc1ccn([C@@H]2O[C@H](CO)[C@@H](O)[C@@H]2O)c(=O)n1 [CA, Cytosine-Arabinoside, reference compound]
Day 8 COUNT CFU-S-8 [3]: 1270 ± 53
Day 8 COUNT CFU-S-12 [3]: 1244 ± 71
Day 8 COUNT Karyocytes [3]: 17.5 ± 0.8 × 10^6
